Reference: patent publication US11845736B2, “Prodrugs of MDMA, MDA, and derivatives thereof” (EmpathBio, Inc., priority 2021, dated 2023)
In brackets after ≈: the same amount, converted by molar mass. Where two headings read alike, the source gives them in different places.

Experiments:
[1] = healthy human subjects, cited from earlier work
[2] = Compound chemical stability SGF with pepsin
[3] = Compound mouse plasma stability
[4] = Compound chemical stability SGF without pepsin
[5] = Compound chemical stability PBS (pH 6.5)
[6] = Compound solubility in FaSSIF
[7] = cited from earlier work; for Cmax / Tmax: healthy human subjects

Compound: CNC(C)Cc1ccc2c(c1)OCO2 (racemic) [MDMA, 3,4-methylenedioxymethamphetamine]
- Cmax ([1]; 75 mg MDMA): 130.9 ng/mL
- T1/2 (elimination half-life) ([1]; 75 mg MDMA): 7.7 h
- Tmax ([1]; 75 mg MDMA): 1.8 h
- Cmax ([1]; 125 mg MDMA): 236.4 ng/mL
- T1/2 (elimination half-life) ([1]; 125 mg MDMA): 8.6 h
- Tmax ([1]; 125 mg MDMA): 2.4 h

Compound: Cc1oc(=O)oc1CN(C)[C@H](C)Cc1ccc2c(c1)OCO2 [Compound 9, (R)-4-(((1-(benzo[d][1,3]dioxol-5-yl)propan-2-yl)(methyl)amino)methyl)-5-methyl-1,3-dioxol-2-one]
- % Remaining ([2]; 0 minutes): 100%
- % Remaining ([2]; 30 minutes): 97%
- % Remaining ([2]; 60 minutes): 92%
- % Remaining ([2]; 120 minutes): 87%
- % Remaining ([2]; 240 minutes): 71%
- % Remaining ([3]; 0 minutes): 100%
- % Remaining ([3]; 15 minutes): 70%
- % Remaining ([3]; 30 minutes): 22%
- % Remaining ([3]; 60 minutes): 4%
- % Remaining ([4]; 0 minutes): 1000%
- % Remaining ([4]; 30 minutes): 94%
- % Remaining ([4]; 60 minutes): 89%
- % Remaining ([4]; 120 minutes): 83%
- % Remaining ([4]; 240 minutes): 72%
- % Remaining ([5]; PBS pH 6.5, 0 minutes): 100%
- % Remaining ([5]; PBS pH 6.5, 30 minutes): 83%
- % Remaining ([5]; PBS pH 6.5, 60 minutes): 75%
- % Remaining ([5]; PBS pH 6.5, 120 minutes): 55%
- % Remaining ([5]; PBS pH 6.5, 240 minutes): 32%
- solubility [6]: 223 µM (≈ 68.2 µg/mL)

Compound: CC(N)Cc1ccc2c(c1)OCO2 (stereo not shown) [MDA]
- Cmax ([7]; 75 mg MDA): 7.8 ng/mL
- Tmax ([7]; 75 mg MDMA): 5 h
- Cmax ([7]; 125 mg MDA): 13.7 ng/mL
- Tmax ([7]; 125 mg MDMA): 7 h
- MDA formation rate constant ([7]; estimated for both MDMA doses): about 0.75 h
